The text below walks through data of the NIST ThermoML archive (doi:10.1021/acs.jced.5b00988).

Data set [1] can be described thus: wn = mass fraction of the nth substance listed. The conditions noted are these: 298.15 K, 102.5 kPa, Liquid; for viscosity: Concentric cylinders viscometry; for mass density: Vibrating tube method.
The conditions of data set [2]: Crystal; visual observation.

Several values for one entry are separate records, joined by “and”; a condition that tells them apart may be missing. Equal entries are not always repeated. Numbers after ± are expanded uncertainties.

As to `[Cl-].[Na+]` [sodium chloride] + O, in data set [1] (w1 = 0.2642), the viscosity (commonly the internal friction of a fluid under shear) was 1.5 ± 0.03 mPa·s and 1.7 ± 0.04 mPa·s; the mass density (usually the mass of a sample divided by its volume) was 1194 ± 2 kg/m3 and 1214 ± 2 kg/m3. For the compound `O=[PH2][O-].[Na+]` [sodium phosphinate] + O, in data set [1] (w1 = 0.5196), the viscosity is on record as 17.6 ± 0.38 mPa·s and the mass density turned out to be 1394 ± 3 kg/m3. As for `O=[PH2][O-].O=[PH2][O-].[Zn+2]` [zinc(II) phosphinate], in data set [2], the Triple point temperature is 446.15 ± 5 K.

As for `O=[PH2][O-].O=[PH2][O-].[Zn+2]` [zinc(II) phosphinate] + O, the viscosity in data set [1] (w2 = 0.5196) came to 2.04 ± 0.04 mPa·s. In data set [1] (w1 = 0.1861), the mass density was 1157 ± 2 kg/m3.
